Experimental data reported in patent EP4786455A1, “NOVEL PHTHALAZINE DERIVATIVE COMPOUND AS SOS1 INHIBITOR, AND USE THEREOF” (Hanmi Pharmaceutical Co., Ltd., priority 2023, dated 2025).

Target: T1, SOS1 (Homo sapiens, UniProt Q07889)
T1 construct: comprising amino acid residues 564-1049 corresponding to the catalytic domain; purchased Reaction Biology Corp. SOS1-Strep #MSC-11-502; GST-KRAS G12C #MSC-11-538
T1 sequence (Q07889 564-1049): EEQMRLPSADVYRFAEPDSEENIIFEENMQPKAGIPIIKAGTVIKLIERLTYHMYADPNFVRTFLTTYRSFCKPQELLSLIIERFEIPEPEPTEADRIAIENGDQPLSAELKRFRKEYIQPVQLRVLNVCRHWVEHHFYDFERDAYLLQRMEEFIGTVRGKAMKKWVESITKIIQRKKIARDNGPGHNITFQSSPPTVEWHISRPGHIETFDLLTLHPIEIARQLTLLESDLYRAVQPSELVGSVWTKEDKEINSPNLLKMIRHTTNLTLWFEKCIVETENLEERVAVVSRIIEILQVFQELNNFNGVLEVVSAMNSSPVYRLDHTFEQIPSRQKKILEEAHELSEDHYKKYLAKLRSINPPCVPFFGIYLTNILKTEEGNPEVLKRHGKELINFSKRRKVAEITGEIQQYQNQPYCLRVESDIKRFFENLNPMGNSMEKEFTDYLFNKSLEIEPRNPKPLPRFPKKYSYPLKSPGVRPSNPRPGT
Experiment: Inhibitory activity on SOS1-mediated GTP exchange (HTRF / TR-FRET nucleotide exchange assay on KRAS G12C)
Assay type: biochemical
Details: SOS1-mediated GTP exchange on GST-KRAS G12C (residues 2-169); SOS1-Strep catalytic domain (564-1049); GTP-DY-647P1; HTRF signal; 5-point concentration series up to 1,000 nM
Description: To evaluate whether the SOS1-mediated nucleotide exchange activity on KRAS G12C is inhibited by the compounds of the above Examples, a homogeneous time-resolved fluorescence (homogenous time-resolved fluorescence, HTRF) assay was performed using GST-KRAS G12C (#MSC-11-538) and SOS1-Strep (#MSC-11-502) obtained from Reaction Biology Corp. (USA, MA). The activity of SOS1 was determined by measuring the amount of GTP bound to the KRAS G12C protein based on the principle of time-resolved fluorescence resonance energy transfer (time-resolved fluorescence energy transfer, TR-FRET). Terbium (Terbium) conjugated to an anti-GST antibody bound to the GST tag of the GST-KRAS G12C protein served as a FRET donor, and GTP bound to the KRAS G12C protein was labeled with the fluorophore DY-647P1, serving as a FRET acceptor. Based on this principle, a higher HTRF or FRET signal is observed as more GTP is bound to KRAS G12C due to the SOS1-mediated exchange reaction in the assay.
In summary, a GST-labeled KRAS G12C protein (comprising amino acid residues 2-169), a […] SOS1 protein (comprising amino acid residues 564-1049 corresponding to the catalytic domain), an anti-GST antibody, labeled nucleotide GTP-DY-647P1, and the test compound were mixed in a buffer solution containing 20 mM HEPES (pH 7.4), 150 mM NaCl, 5 mM MgCl2, 1 mM dithiothreitol (DTT), 0.05% BSA, and 0.0025% NP40. The mixture was dispensed into a 384-well plate, incubated at room temperature, and the HTRF signal was measured using a PHERAstar microplate reader (BMG Labtech). The excitation wavelength was 337 nm, and emission was measured at 620/665 nm. A background signal value was determined from fluorescence measurements obtained in the absence of SOS1 protein and was subtracted from all measured HTRF values. A control value was determined from fluorescence measurements obtained in the absence of the synthesized compounds and was set as the 100% reference. Fluorescence signals were measured at compound concentrations of 0.1, 1, 10, 100, and 1,000 nM (5 points, 10-fold) or 1.6, 8, 40, 200, and 1,000 nM (5 points, 5-fold). The 50% inhibitory concentration (IC50) values of the compounds were calculated using GraphPad Prism.
IC50 values were denoted as +++ when 50 nM or less, ++ when greater than 50 nM and 100 nM or less, and + when greater than 100 nM.

Row | Structure (SMILES) | IC50 [nM]
1 | CNc1cc2c(N[C@H](C)c3cc(N)cc(C(F)(F)F)c3)nnc(C)c2cc1C(=O)N1CCOCC1 [Example 25, (R)-(1-((1-(3-amino-5-(trifluoromethyl)phenyl)ethyl)amino)-4-methyl-7-(methylamino)phthalazin-6-yl)(morpholino)methanone] | ≤ 50
2 | CNc1cc2c(N[C@H](C)c3cc(N)cc(C(F)F)c3F)nnc(C)c2cc1C(=O)N1CCOCC1 [Example 26, (R)-(1-((1-(5-amino-3-(difluoromethyl)-2-fluorophenyl)ethyl)amino)-4-methyl-7-(methylamino)phthalazin-6-yl)(morpholino)methanone] | ≤ 50
3 | CNc1cc2c(N[C@H](C)c3cccc(C(F)(F)CO)c3)nnc(C)c2cc1C(=O)N1CCOCC1 [Example 27, (R)-(1-((1-(3-(1,1-difluoro-2-hydroxyethyl)phenyl)ethyl)amino)-4-methyl-7-(methylamino)phthalazin-6-yl)(morpholino)methanone] | ≤ 50
4 | COc1cc2c(N[C@H](C)c3cccc(C#N)c3C)nnc(C)c2cc1CN1CCOCC1 [Example 28, (R)-3-(1-((7-methoxy-4-methyl-6-(morpholinomethyl)phthalazin-1-yl)amino)ethyl)-2-methylbenzonitrile] | ≤ 50
5 | CNc1cc2c(N[C@H](C)c3cccc(C#N)c3C)nnc(C)c2cc1CN1CCOCC1 [Example 29, (R)-2-methyl-3-(1-((4-methyl-7-(methylamino)-6-(morpholinomethyl)phthalazin-1-yl)amino)ethyl)benzonitrile] | ≤ 50
6 | Cc1c(C#N)cccc1[C@@H](C)Nc1nnc(C)c2cc(CN3CCOCC3)c(NC3CCCC3)cc12 [Example 30, (R)-3-(1-((7-(cyclopentylamino)-4-methyl-6-(morpholinomethyl)phthalazin-1-yl)amino)ethyl)-2-methylbenzonitrile] | ≤ 50
7 | Cc1c(C#N)cccc1[C@@H](C)Nc1nnc(C)c2cc(CN3CCN(C4CC4)CC3)c(NC3CCCC3)cc12 [Example 31, (R)-3-(1-((7-(cyclopentylamino)-6-((4-cyclopropylpiperazin-1-yl)methyl)-4-methylphthalazin-1-yl)amino)ethyl)-2-methylbenzonitrile] | ≤ 50
8 | COc1cc2c(N[C@H](C)c3cccc(C#N)c3C)nnc(C)c2cc1C(=O)N1CCOCC1 [Example 32, (R)-3-(1-((7-methoxy-4-methyl-6-(morpholine-4-carbonyl)phthalazin-1-yl)amino)ethyl)-2-methylbenzonitrile] | ≤ 50
9 | Cc1c(C#N)cccc1[C@@H](C)Nc1nnc(C)c2cc(C(=O)N3CCOCC3)c(NC3CCCC3)cc12 [Example 33] | ≤ 50
